Data set [1] is described as follows: TLC analysis of distribution of substrate and product in CPS. The data set is classed as physicochemical. The following applies: FIG. 4. The procedure:
TLC analysis was performed to determine the distribution of substrate and products in CPS, using Silica gel 60 F254 (Merck) high-performance thin layer chromatography plates which is developed in Chloroform:ether (1:3) followed by soaking in phosphornolybdic acid solution and drying by heat. Substrate and products were separated, with their Rf values of cholesterol, a-AD and ADD being 0.62, 0.47, and 0.42, respectively.
By TLC analysis, the partition of substrate and product in CPS is viewed in FIG. 4. […] Partition of cells between the two phases is determined with hemocytometry. Its partition coefficient between the coacervate phase and the dilute phase is roughly 10, indicating the surface of Mycobacterium sp. is rather hydrophobic. This is in compliance with the report that Mycobacterium is a hydrophobic microbe.

The conditions of data set [2]: cited from earlier work.
For data set [3] the following is noted: cloud point; cited from earlier work.
For data set [4], the system named is Mycobacterium sp. NRRL B 3683. The data set can be described thus: Screening of nonionic surfactant: biocompatibility or potential toxicity to the microorganism, by final ADD concentration in surfactant-amended transformation medium. The data set is classed as cell-based. The following applies: high concentration of surfactant (2.0 g/100 ml), 28° C., 7 days. The procedure: Microbial strain, Mycobacterium sp. NRRL B 3683, is preserved in Shanghai Health Creation Center for Biopharmaceuticals R&D. It is able to remove the side chain of cholesterol, giving out ADD and 4-AD as final products, at a ratio of ca. 10:1.
Transformation medium (100 ml): (NH4)SO4 1.0 g, Na2HPO4 0.45 g, KH2PO4 0.34 g, MgSO4.7H2O 0.2 g, cholesterol 0.5 g, nonionic surfactant 2.0 g
The seed culture was grown aerobically at 28° C. at 220 r/min for 3 days with 20 ml of medium in a 250 ml Erlenmeyer flask. The seed culture was then transferred by 10% into 22 ml of transformation medium in a 250 ml Erlenmeyer flask, which was then shaken at 28° C. at 220 r/min for 7 days. A portion of the well-mixed transformation culture broth was withdrawn for analysis.
1 ml of sample was withdrawn from culture broth and extracted with 4 ml of methanol for 2 hrs, followed by centrifugation. 0.8 ml of supernatant was taken for HPLC analysis. Hypesil C18 column using methanol:water (4:1) as mobile phase, flow rate of 0.7 ml/min, and detection wavelength at 254 nm were applied.
For selecting appropriate medium of microbial transformation, biocompatibility or potential toxicity of surfactant to microorganism is critical.

For data set [5] the following is noted: footnote a: mg/L; cited from earlier work.

For the molecule `C[C@]12C=CC(=O)C=C1CC[C@@H]1[C@@H]2CC[C@]2(C)C(=O)CC[C@@H]12` [ADD], the “partition in CPS (dilute phase vs coacervate phase)” value in data set [1] is “based in the coacervate phase”.

For `CC(C)CCC[C@@H](C)[C@H]1CC[C@H]2[C@@H]3CC=C4C[C@@H](O)CC[C@]4(C)[C@H]3CC[C@]12C` [cholesterol], the solubility in water result in data set [2] is “below 1 μM”.

Consider Triton X-100, for which the CP in data set [3] was 64 °C. The “biocompatibility with the microorganism” value in data set [4] is on record as “incompatible with the microorganism”.

Regarding Tween 40, in data set [5], the CMC was 29^a mg/L.

Consider Tween 60, for which, in data set [5], the CMC is recorded as 27^a mg/L.
